Experimental data: ChEMBL document CHEMBL5108044, “Discovery of a Novel Potent STAT3 Inhibitor HP590 with Dual p-Tyr705/Ser727 Inhibitory Activity for Gastric Cancer Treatment” (J Med Chem, 2022)
Active and inactive are the calls of the source. No cut-off for these calls is given here.

Key:
[1] = biological target: T1, Signal transducer and activator of transcription 3 (Homo sapiens, UniProt P40763); test: Inhibition of STAT3 phosphorylation at Ser727 residue in human AGS cells incubated upto 24 hrs by Western blotting analysis; type: cell-based; settings: dose <= 40.0 nM, DDE = dose-dependent effect
T1 sequence (P40763 whole entry): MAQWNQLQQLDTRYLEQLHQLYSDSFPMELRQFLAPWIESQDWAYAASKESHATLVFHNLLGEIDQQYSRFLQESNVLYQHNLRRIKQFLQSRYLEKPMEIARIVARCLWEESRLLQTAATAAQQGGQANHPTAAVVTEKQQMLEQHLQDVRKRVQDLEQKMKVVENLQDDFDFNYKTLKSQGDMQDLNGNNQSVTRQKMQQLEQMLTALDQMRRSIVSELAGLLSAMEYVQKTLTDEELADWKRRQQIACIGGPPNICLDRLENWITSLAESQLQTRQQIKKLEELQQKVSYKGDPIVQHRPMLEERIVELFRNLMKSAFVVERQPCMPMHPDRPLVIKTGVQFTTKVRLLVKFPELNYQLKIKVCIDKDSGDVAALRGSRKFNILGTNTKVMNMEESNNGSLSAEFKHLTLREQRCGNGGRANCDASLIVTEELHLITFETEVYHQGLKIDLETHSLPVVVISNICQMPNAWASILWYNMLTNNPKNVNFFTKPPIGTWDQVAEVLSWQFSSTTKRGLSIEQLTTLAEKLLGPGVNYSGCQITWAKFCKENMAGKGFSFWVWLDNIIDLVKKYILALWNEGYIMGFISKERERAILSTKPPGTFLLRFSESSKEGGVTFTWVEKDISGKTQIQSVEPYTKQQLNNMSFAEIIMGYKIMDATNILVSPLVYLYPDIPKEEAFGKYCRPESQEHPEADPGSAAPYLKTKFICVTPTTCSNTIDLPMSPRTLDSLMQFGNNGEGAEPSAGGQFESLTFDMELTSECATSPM

AGS [2] = test: Induction of apoptosis in human AGS cells assessed as viable cells at 10 nM incubated for 48 hrs by FITC-annexin V/propidium iodide staining based flow cytometry (reference value: 87.2%); type: functional; settings: read-out: Activity
[3] = biological target: T1, Signal transducer and activator of transcription 3; test: Inhibition of IL-6 induced STAT3 phosphorylation at Tyr705 residue in human MGC-803 cells at 40 nM preincubated for 24 hrs followed by IL-6 stimulation and measured after 30 min by Western blotting analysis; type: cell-based; settings: time 24.5 hrs
[4] = Cmax in ICR mouse plasma at 1 mg/kg, iv measured up to 24 hrs by LC-MS/MS analysis; type: ADME, organism-based; set-up: time < 24 hrs, dose 1 mg/kg, route iv
AGS [5] = test: Induction of apoptosis in human AGS cells assessed as late apoptic cells 10 nM incubated for 48 hrs by FITC-annexin V/propidium iodide staining based flow cytometry (reference value: 9.56%); type: functional
[6] = biological target: T1, Signal transducer and activator of transcription 3; test: Inhibition of STAT3 in human AGS cells assessed as downregulation of cyclin D1 expression at 10 to 40 nM incubated for 24 hrs by RT-PCR analysis; type: cell-based; settings: dose 10-40 nM
[7] = Toxicity in BALB/c nude mouse xenografted with human MKN-45 cells assessed as liver damage at 25 to 50 mg/kg, po qd administered for 5 weeks by H and E staining based analysis; type: organism-based; settings: in vivo, 840 h, dose 25-50 mg/kg
[8] = biological target: T1, Signal transducer and activator of transcription 3; test: Inhibition of STAT3 phosphorylation at Tyr705 residue in human MKN-45 cells upto 40 nM by Western blotting analysis; type: cell-based; settings: time <= 24.0 hrs, TDE = time-dependent effect
[9] = biological target: T1, Signal transducer and activator of transcription 3; test: Inhibition of STAT3 in human MKN-45 cells assessed as downregulation of c-Myc expression up to 40 nM by western blot analysis; type: cell-based; settings: time <= 24.0 hrs, DDE = dose-dependent effect
MGC-803 [10] = test: Antiproliferative activity against human MGC-803 cells assessed as reduction in cell viability incubated for 72 hrs by MTS assay; type: functional, cell-based; settings: MGC-803, 72 h
MKN-45 [11] = test: In vivo inhibition of STAT3 phosphorylation at Tyr705 residue in human MKN-45 cells xenografted in BALB/c nude mouse at 25 to 50 mg/kg, po qd administered for 5 weeks by immunohistochemical analysis; type: functional, organism-based; settings: dose 25-50 mg/kg
MKN-45 [12] = test: Induction of apoptosis in human MKN-45 cells assessed as necrotic cells 10 nM incubated for 48 hrs by FITC-annexin V/propidium iodide staining based flow cytometry (reference value: 10.3%); type: functional
[13] = Elimination half life in ICR mouse plasma at 1 mg/kg, iv measured up to 24 hrs by LC-MS/MS analysis; type: ADME, organism-based; settings: read-out: beta t1/2 (converted)
MKN-45 [14] = test: Induction of apoptosis in human MKN-45 cells assessed as viable cells at 10 nM incubated for 48 hrs by FITC-annexin V/propidium iodide staining based flow cytometry (reference value: 68%); type: functional; settings: read-out: Activity
AGS [15] = test: Induction of apoptosis in human AGS cells assessed as early apoptic cells 5 nM incubated for 48 hrs by FITC-annexin V/propidium iodide staining based flow cytometry (reference value: 0.55%); type: functional
AGS [16] = test: Induction of apoptosis in human AGS cells assessed as necrotic cells 5 nM incubated for 48 hrs by FITC-annexin V/propidium iodide staining based flow cytometry (reference value: 2.70%); type: functional
AGS [17] = test: Induction of apoptosis in human AGS cells assessed as late apoptic cells 20 nM incubated for 48 hrs by FITC-annexin V/propidium iodide staining based flow cytometry (reference value: 9.56%); type: functional
[18] = biological target: Tyrosine-protein kinase JAK1 (Homo sapiens, UniProt P23458); test: Inhibition of JAK1 (unknown origin)
Chain of Tyrosine-protein kinase JAK1 (P23458 whole entry): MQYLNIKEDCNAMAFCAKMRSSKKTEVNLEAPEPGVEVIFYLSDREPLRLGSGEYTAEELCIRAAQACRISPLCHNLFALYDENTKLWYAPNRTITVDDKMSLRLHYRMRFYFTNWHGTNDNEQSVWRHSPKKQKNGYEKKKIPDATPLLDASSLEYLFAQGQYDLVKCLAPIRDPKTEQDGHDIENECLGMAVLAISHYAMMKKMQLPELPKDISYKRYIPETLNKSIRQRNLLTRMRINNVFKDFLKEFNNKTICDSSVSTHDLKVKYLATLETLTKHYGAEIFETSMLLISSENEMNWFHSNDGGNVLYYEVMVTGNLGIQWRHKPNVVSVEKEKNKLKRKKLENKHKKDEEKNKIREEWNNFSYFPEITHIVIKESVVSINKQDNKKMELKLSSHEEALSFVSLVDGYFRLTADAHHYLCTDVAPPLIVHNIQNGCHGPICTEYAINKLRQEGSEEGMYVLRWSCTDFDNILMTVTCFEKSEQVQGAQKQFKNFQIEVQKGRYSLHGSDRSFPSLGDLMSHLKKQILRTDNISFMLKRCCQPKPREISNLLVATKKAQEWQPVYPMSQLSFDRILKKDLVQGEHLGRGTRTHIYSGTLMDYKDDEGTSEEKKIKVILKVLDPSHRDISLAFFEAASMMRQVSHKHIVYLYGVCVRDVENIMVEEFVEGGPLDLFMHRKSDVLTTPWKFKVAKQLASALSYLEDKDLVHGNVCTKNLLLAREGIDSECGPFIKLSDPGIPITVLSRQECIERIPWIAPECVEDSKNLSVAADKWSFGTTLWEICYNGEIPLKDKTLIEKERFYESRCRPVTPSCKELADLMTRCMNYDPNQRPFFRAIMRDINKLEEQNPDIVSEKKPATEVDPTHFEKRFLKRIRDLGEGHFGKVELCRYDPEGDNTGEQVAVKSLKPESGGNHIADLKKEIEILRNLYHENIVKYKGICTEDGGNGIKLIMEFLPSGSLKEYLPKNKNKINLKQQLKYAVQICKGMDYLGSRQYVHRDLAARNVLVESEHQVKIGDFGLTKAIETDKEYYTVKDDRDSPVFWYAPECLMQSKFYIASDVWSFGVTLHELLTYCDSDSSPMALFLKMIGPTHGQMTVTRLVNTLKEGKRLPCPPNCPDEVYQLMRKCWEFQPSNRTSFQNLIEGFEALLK

[19] = Cmax in ICR mouse plasma at 10 mg/kg, po measured up to 24 hrs by LC-MS/MS analysis; type: ADME, organism-based; set-up: dose 10 mg/kg, time < 24 hrs, route po
[20] = biological target: T1, Signal transducer and activator of transcription 3; test: Inhibition of STAT3 in human MKN-45 cells assessed as downregulation of cyclin D1 expression at 10 to 40 nM incubated for 24 hrs by RT-PCR analysis; type: cell-based; settings: dose 10-40 nM
AGS [21] = test: Induction of apoptosis in human AGS cells assessed as late apoptic cells 5 nM incubated for 48 hrs by FITC-annexin V/propidium iodide staining based flow cytometry (reference value: 9.56%); type: functional
MKN-45 [22] = test: Induction of apoptosis in human MKN-45 cells assessed as necrotic cells 5 nM incubated for 48 hrs by FITC-annexin V/propidium iodide staining based flow cytometry (reference value: 10.3%); type: functional
[23] = Elimination half life in ICR mouse plasma at 10 mg/kg, po measured up to 24 hrs by LC-MS/MS analysis; type: ADME, organism-based; settings: read-out: beta t1/2 (converted)
[24] = Toxicity in BALB/c nude mouse assessed as body weight loss at 25 to 50 mg/kg, po qd administered for 5 weeks; type: organism-based; settings: in vivo, 840 h, dose 25-50 mg/kg
[25] = biological target: T1, Signal transducer and activator of transcription 3; test: Inhibition of human recombinant STAT3 (127 to 722 residues) transcriptional activity expressed in HEK293T cells in presence of IL-6 by Dual-luciferase reporter gene assay; type: cell-based
[26] = biological target: T1, Signal transducer and activator of transcription 3; test: Inhibition of STAT3 in human AGS cells assessed as downregulation of c-Myc expression incubated up to 24 hrs by western blot analysis; type: cell-based; settings: dose <= 40.0 nM, DDE = dose-dependent effect
[27] = Toxicity in BALB/c nude mouse xenografted with human MKN-45 cells assessed as spleen damage at 25 to 50 mg/kg, po qd administered for 5 weeks by H and E staining based analysis; type: organism-based; settings: in vivo, 840 h, dose 25-50 mg/kg
GES1 = test: Antiproliferative activity against human GES1 cells assessed as cell viability measured upto 1 uM incubated for 72 hrs by MTS assay; type: toxicity, cell-based; settings: ges1, 72 h
MKN-45 [28] = test: Antitumor activity against human MKN-45 cells xenografted in BALB/c nude mouse assessed as reduction in Ki67 gene expression at 25 to 50 mg/kg, po qd administered for 5 weeks immunohistochemical analysis; type: functional, organism-based; settings: dose 25-50 mg/kg
[29] = Toxicity in BALB/c nude mouse xenografted with human MKN-45 cells assessed as heart damage at 25 to 50 mg/kg, po qd administered for 5 weeks by H and E staining based analysis; type: organism-based; settings: in vivo, 840 h, dose 25-50 mg/kg
[30] = AUC (0 to infinity) in ICR mouse plasma at 10 mg/kg, po measured up to 24 hrs by LC-MS/MS analysis; type: ADME, organism-based; set-up: dose 10 mg/kg, time < 24 hrs, route po
[31] = AUC (0 to infinity) in ICR mouse plasma at 1 mg/kg, iv measured up to 24 hrs by LC-MS/MS analysis; type: ADME, organism-based; set-up: time < 24 hrs, dose 1 mg/kg, route iv
MKN-45 [32] = test: Inhibition of mitochondrial respiration in STAT3 knockdown human MKN-45 cells assessed as oxygen consumption rate incubated for 80 mins […]; type: functional, cell-based
MGC-803 [33] = test: Antiproliferative activity against human MGC-803 cells assessed as cell viability incubated for 72 hrs by MTS assay; type: functional, cell-based; settings: dose <= 100.0 nM, DDE = dose-dependent effect
MKN-45 [34] = test: Inhibition of mitochondrial respiration in STAT3 knockdown human MKN-45 cells assessed as basal oxygen consumption rate incubated for 80 mins […]; type: functional, cell-based

- inhibition [1]: Dde
- inhibition [3]: Active
- Cmax [4]: 666 ng/mL
- inhibition [6]: Active
- inhibition [8]: Tde
- inhibition [9]: Dde
- IC50 (MGC-803 [10]): 8.7 nM
- half-life [13]: 9.06 h
- IC50 [18]: > 10000 nM
- Cmax [19]: 529 ng/mL
- inhibition [20]: Active
- half-life [23]: 16 h
- IC50 [25]: 27.8 nM
- inhibition [26]: Dde
- AUC(0-inf) [30]: 15500 ng·h/mL
- AUC(0-inf) [31]: 2270 ng·h/mL
SMILES: O=C(c1ccc(-c2noc(-c3ccc(C(F)(F)F)cc3)n2)cc1)N1CCN(Cc2ccc(OCC(F)(F)F)cc2)CC1
- viability at 0.01 µM (AGS [2]): 82.3%
- Activity (AGS [5]): 10.4%
- Activity [7]: Non-Toxic
- inhibition (MKN-45 [11]): Active
- Activity (MKN-45 [12]): 9.14%
- viability at 0.01 µM (MKN-45 [14]): 68.5%
- Activity (AGS [15]): 2.7%
- Activity (AGS [16]): 3.96%
- Activity (AGS [17]): 27.1%
- Activity (AGS [21]): 7.61%
- Activity (MKN-45 [22]): 8.54%
- Activity [24]: Non-Toxic
- Activity [27]: Non-Toxic
- Activity (GES1): Non-Toxic
- Activity (MKN-45 [28]): Active
- Activity [29]: Non-Toxic
- inhibition (MKN-45 [32]): Active
- Activity (MGC-803 [33]): Dde
- inhibition (MKN-45 [34]): Active
